Each structure is given as a SMILES string. Where a name gives a salt, the structure may show the parent alone. A value given as a limit tells only on which side of the number the result lay.

Test [1] relates to CD69 expression on CD19+ B cells in human whole blood. Nature of the test: In Vitro whole blood CD69 Assay. It counts as cell-based. Particulars: B-cell; human heparinized whole blood, anti-human IgD stimulation overnight, CD19+ B cells, flow cytometry; read-out: In Vitro HWB CD69 Assay IC50 Score. The method, then:
Human heparinized venous blood from health donors was aliquoted into 96-well plate and “spiked” with serial dilutions of formula I compounds in DMSO or with DMSO without drug. The final concentration of DMSO in all wells was 0.1%. The plate was incubated at 37° C. for 30 min. Drug-containing samples were stimulated with 0.1 μg/mL mouse anti-human IgD-dextran (1A62) or 20 μg/mL polyclonal rabbit F(ab′)2 anti-human IgD. Phosphate-buffered saline (PBS) was added to the negative control unstimulated sample and the plates were incubated overnight (18 to 22 hours) at 37° C. Cells were stained with fluorochrome-conjugated anti-CD19 and anti-CD69 antibodies. Lyse/fix solution was used to remove red blood cells by hypotonic lysis and to fix the remaining cells, which were then analyzed by flow cytometry. CD19+ B cells were gated and analyzed for CD69 expression.
A general note: In flow cytometry, cells or beads pass a laser one at a time.

Test [2] addresses T1, BTK (Homo sapiens, UniProt Q06187).
T1 construct: purchased Upstate 14-552
Nature of the test: In Vitro BTK Kinase Assay: Btk-PolyGAT-LS Assay. The class given is biochemical. To be noted: active BTK enzyme 0.25 nM, polyGAT 100 nM, 30 minutes, TRF readout; read-out: In Vitro BTK Kinase Assay IC50 Score. The method, then: The purpose of the BTK in vitro assay is to determine compound potency against BTK through the measurement of IC50. Compound inhibition is measured after monitoring the amount of phosphorylation of a fluorescein-labeled polyGAT peptide (Invitrogen PV3611) in the presence of active BTK enzyme (Upstate 14-552), ATP, and inhibitor. The BTK kinase reaction was done in a black 96 well plate (costar 3694). For a typical assay, a 24 μL aliquot of a ATP/peptide master mix (final concentration; ATP […], polyGAT 100 nM) in kinase buffer (10 mM Tris-HCl pH 7.5, 10 mM MgCl2, 200 μM […], 5 mM DTT, 0.01% Triton X-100, and 0.2 mg/ml casein) is added to each well. Next, […] of a 4-fold, 40× compound titration in 100% DMSO solvent is added, followed by adding 15 μL of BTK enzyme mix in 1× kinase buffer (with a final concentration of 0.25 nM). The assay is incubated for 30 minutes before being stopped with 28 μL of a 50 mM EDTA solution. Aliquots (5 uL) of the kinase reaction are transferred to a low volume white 384 well plate (Coming 3674), and 5 μL of a 2× detection buffer (Invitrogen PV3574, with 4 nM Tb—PY20 antibody, Invitrogen PV3552) is added. The plate is covered and incubated for 45 minutes at room temperature. Time resolved fluorescence (TRF) on Molecular Devices M5 (332 nm excitation; 488 nm emission; 518 nm fluorescein emission) is measured. IC50 values are calculated using a four parameter fit with 100% enzyme activity determined from the DMSO control and 0% activity from the EDTA control.

T1 sequence (Q06187 whole entry): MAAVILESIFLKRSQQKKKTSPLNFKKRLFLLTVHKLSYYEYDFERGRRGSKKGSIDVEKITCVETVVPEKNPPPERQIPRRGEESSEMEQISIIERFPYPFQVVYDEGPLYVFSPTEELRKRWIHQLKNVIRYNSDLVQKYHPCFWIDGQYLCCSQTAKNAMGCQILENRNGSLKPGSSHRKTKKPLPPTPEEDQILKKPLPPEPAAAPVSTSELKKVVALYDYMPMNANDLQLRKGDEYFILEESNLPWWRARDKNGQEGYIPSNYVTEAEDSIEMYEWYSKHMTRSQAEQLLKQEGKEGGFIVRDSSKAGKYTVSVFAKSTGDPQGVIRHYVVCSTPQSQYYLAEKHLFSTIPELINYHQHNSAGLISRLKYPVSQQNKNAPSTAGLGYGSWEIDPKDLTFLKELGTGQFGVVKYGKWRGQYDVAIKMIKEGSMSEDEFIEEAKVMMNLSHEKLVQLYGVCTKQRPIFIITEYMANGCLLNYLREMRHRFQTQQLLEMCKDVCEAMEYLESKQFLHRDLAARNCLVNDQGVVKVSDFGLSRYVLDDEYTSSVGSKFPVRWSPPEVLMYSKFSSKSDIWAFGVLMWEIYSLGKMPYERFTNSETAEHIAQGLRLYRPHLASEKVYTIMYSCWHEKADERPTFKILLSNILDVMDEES

As usually defined, the IC50 is the midpoint of a concentration-inhibition curve. For the molecule `COCCOc1cn2nccc2c(-c2ccc(CNC(=O)c3noc(C(C)(C)C)n3)c(C)c2)n1` [Example 132, 5-(tert-butyl)-N-(4-(6-(2-methoxyethoxy)pyrazolo[1,5-a]pyrazin-4-yl)-2-methylbenzyl)-1,2,4-oxadiazole-3-carboxamide], the IC50 was in the range of 1000 to 10000 nM in test [1] and 1 to 10 nM in test [2].
For `Cn1cc(-c2cn3nccc3c(-c3ccc(CNC(=O)c4cnn(C(C)(C)C)c4)c(C(F)F)c3)n2)cn1` [Example 107, 1-(tert-butyl)-N-(2-(difluoromethyl)-4-(6-(1-methyl-1H-pyrazol-4-yl)pyrazolo[1,5-a]pyrazin-4-yl)benzyl)-1H-pyrazole-4-carboxamide] the same measures were less than 1000 nM and less than 1 nM.
The matching figures for `Cn1cc(-c2cn3nccc3c(-c3cc(F)c(CNC(=O)c4noc(C(C)(C)C)n4)cc3F)n2)cn1` [Example 84, 5-(tert-butyl)-N-(2,5-difluoro-4-(6-(1-methyl-1H-pyrazol-4-yl)pyrazolo[1,5-a]pyrazin-4-yl)benzyl)-1,2,4-oxadiazole-3-carboxamide]: less than 1000 nM and less than 1 nM.
For `Cn1cc(-c2cn3nccc3c(-c3ccc(CNC(=O)c4noc(C5(C)CC5)n4)c(F)c3)n2)cn1` [Example 8, N-(2-fluoro-4-(6-(1-methyl-1H-pyrazol-4-yl)pyrazolo[1,5-a]pyrazin-4-yl)benzyl)-5-(1-methylcyclopropyl)-1,2,4-oxadiazole-3-carboxamide] the same measures were less than 1000 nM and less than 1 nM.
As to `Cn1cc(-c2cn3nccc3c(-c3cc(F)c(CNC(=O)c4coc(C(C)(C)C)n4)cc3F)n2)cn1` [Example 95, 2-(tert-butyl)-N-(2,5-difluoro-4-(6-(1-methyl-1H-pyrazol-4-yl)pyrazolo[1,5-a]pyrazin-4-yl)benzyl)oxazole-4-carboxamide], the IC50 in test [1] was 1000 to 10000 nM; in test [2], 1 to 10 nM.
Turning to `Cn1cc(-c2cn3nccc3c(N3CCC(C)(CNC(=O)c4cn(C(C)(C)C)nn4)C3)n2)cn1` (centres unmarked) [Example 49, 1-(tert-butyl)-N-((3-methyl-1-(6-(1-methyl-1H-pyrazol-4-yl)pyrazolo[1,5-a]pyrazin-4-yl)pyrrolidin-3-yl)methyl)-1H-1,2,3-triazole-4-carboxamide], the half-maximal inhibitory concentration (IC50) in test [2] fell in the range of 1000 to 10000 nM.
Same read-out and setting: for `Cn1cc(-c2cn3nccc3c(N3CCC4(CC(NC(=O)c5noc(C(C)(C)C)n5)C4)C3)n2)cn1` (centres unmarked) [Example 52, 5-(tert-butyl)-N-(6-(6-(1-methyl-1H-pyrazol-4-yl)pyrazolo[1,5-a]pyrazin-4-yl)-6-azaspiro[3.4]octan-2-yl)-1,2,4-oxadiazole-3-carboxamide] the value was 1000 to 10000 nM; for `Cn1cc(-c2cc(-c3ccc(CNC(=O)c4cn(C(C)(C)C)nn4)cc3)n3cnnc3c2)cn1` [Example 75, 1-(tert-butyl)-N-(4-(7-(1-methyl-1H-pyrazol-4-yl)-[1,2,4]triazolo[4,3-a]pyridin-5-yl)benzyl)-1H-1,2,3-triazole-4-carboxamide], 10 to 1000 nM.
On the same count and under the same terms, with `Cn1cc(-c2cn3nccc3c(N3CCC(C)(CNC(=O)c4noc(C(C)(C)C)n4)C3)n2)cn1` (centres unmarked) [Example 42, 5-(tert-butyl)-N-((3-methyl-1-(6-(1-methyl-1H-pyrazol-4-yl)pyrazolo[1,5-a]pyrazin-4-yl)pyrrolidin-3-yl)methyl)-1,2,4-oxadiazole-3-carboxamide] the figure was 1000 to 10000 nM.
For `CN1CCN(c2cn3nccc3c(-c3ccc(CNC(=O)c4nnc(C(C)(C)C)o4)c(F)c3)n2)CC1` [Example 127], the IC50 in test [2] was in the range of 10 to 1000 nM.
On the same count and under the same terms, for `Cn1cc(-c2cn3nccc3c(N3CCC(C)(CNC(=O)c4nnn(C(C)(C)C)n4)C3)n2)cn1` (centres unmarked) [Example 48, 2-(tert-butyl)-N-((3-methyl-1-(6-(1-methyl-1H-pyrazol-4-yl)pyrazolo[1,5-a]pyrazin-4-yl)pyrrolidin-3-yl)methyl)-2H-tetrazole-5-carboxamide] the value was 10 to 1000 nM; for `Cc1cc(-c2nc(-c3cnn(C)c3)cn3nccc23)ccc1CN1CCN(CC2COC2)CC1=O` [Example 32, 1-(2-methyl-4-(6-(1-methyl-1H-pyrazol-4-yl)pyrazolo[1,5-a]pyrazin-4-yl)benzyl)-4-(oxetan-3-ylmethyl)piperazin-2-one], 10 to 1000 nM; for `CN1CCN(c2cn3nccc3c(-c3ccc(CNC(=O)c4coc(C(C)(C)C)n4)c(F)c3)n2)CC1` [Example 129, 2-(tert-butyl)-N-(2-fluoro-4-(6-(4-methylpiperazin-1-yl)pyrazolo[1,5-alpyrazin-4-yl)benzyl)oxazole-4-carboxamide trifluoroacetate], 10 to 1000 nM.
As to `Cc1cc(-c2nc(N3CCOCC3)cn3nccc23)ccc1CNC(=O)c1cnn(C(C)(C)C)n1` [Example 123, 2-(tert-butyl)-N-(2-methyl-4-(6-morpholinopyrazolo[1,5-a]pyrazin-4-yl)benzyl)-2H-1,2,3-triazole-4-carboxamide], the IC50 in test [2] is 10 to 1000 nM.
Still for that read-out and setting: for `Cn1cc(-c2cn3nccc3c(N3CCC(C)(CNC(=O)c4cnc(C(C)(C)C)o4)C3)n2)cn1` (centres unmarked) [Example 50, 2-(tert-butyl)-N-((3-methyl-1-(6-(1-methyl-1H-pyrazol-4-yl)pyrazolo[1,5-a]pyrazin-4-yl)pyrrolidin-3-yl)methyl)oxazole-5-carboxamide] the value was 1000 to 10000 nM.
With `CC(C)N1CCN(CC2CCN(c3nc(-c4cnn(C)c4)cn4nccc34)CC2)C(=O)C1` [Example 173, 4-isopropyl-1-((1-(6-(1-methyl-1H-pyrazol-4-yl)pyrazolo[1,5-a]pyrazin-4-yl)piperidin-4-yl)methyl)piperazin-2-one], the IC50 in test [2] is 1000 to 10000 nM.
The same measure, in the same setting: for `Cn1cc(-c2cn3nccc3c(-c3ccc(CNC(=O)c4ccn(C(C)(C)C)n4)c(C(F)F)c3)n2)cn1` [Example 103, 1-(tert-butyl)-N-(2-(difluoromethyl)-4-(6-(1-methyl-1H-pyrazol-4-yl)pyrazolo[1,5-a]pyrazin-4-yl)benzyl)-1H-pyrazole-3-carboxamide] the value was 1 to 10 nM; for `Cn1cc(-c2cn3nccc3c(-c3ccc(CNC(=O)c4ccn(C(C)(C)C)n4)cc3F)n2)cn1` [Example 111, 1-(tert-butyl)-N-(3-fluoro-4-(6-(1-methyl-1H-pyrazol-4-yl)pyrazolo[1,5-a]pyrazin-4-yl)benzyl)-1H-pyrazole-3-carboxamide], 10 to 1000 nM; for `CN(C)c1cn2nccc2c(-c2ccc(CNC(=O)c3noc(C(C)(C)C)n3)cc2)n1` [Example 135, 5-(tert-butyl)-N-(4-(6-(dimethylamino)pyrazolo[1,5-a]pyrazin-4-yl)benzyl)-1,2,4-oxadiazole-3-carboxamide], 10 to 1000 nM.
Still for that read-out and setting: with `Cc1cc(-c2nc(N3CCOCC3)cn3nccc23)ccc1CNC(=O)c1noc(C2(C)CC2)n1` [Example 126, N-(2-methyl-4-(6-morpholinopyrazolo[1,5-a]pyrazin-4-yl)benzyl)-5-(1-methylcyclopropyl)-1,2,4-oxadiazole-3-carboxamide] the figure was 1 to 10 nM; with `CC(C)(C)n1ccc(C(=O)NCc2ccc(-c3nc(N4CCOCC4)cn4nccc34)cc2)n1` [Example 28, 1-(tert-butyl)-N-(4-(6-morpholinopyrazolo[1,5-a]pyrazin-4-yl)benzyl)-1H-pyrazole-3-carboxamide], 1000 to 10000 nM; with `CC(C)(C)n1cc(C(=O)NCc2ccc(-c3nc(N4CCOCC4)cn4nccc34)cc2)cn1` [Example 27, 1-(tert-butyl)-N-(4-(6-morpholinopyrazolo[1,5-a]pyrazin-4-yl)benzyl)-1H-pyrazole-4-carboxamide], 1000 to 10000 nM.
As to `Cn1cc(-c2cn3nccc3c(N3CCC(F)(CNC(=O)c4cn(C(C)(C)C)nn4)CC3)n2)cn1` [Example 162, 1-(tert-butyl)-N-((4-fluoro-1-(6-(1-methyl-1H-pyrazol-4-yl)pyrazolo[1,5-a]pyrazin-4-yl)piperidin-4-yl)methyl)-1H-1,2,3-triazole-4-carboxamide trifluoroacetate], the IC50 in test [2] was in the range of 10 to 1000 nM.
Still for that read-out and setting: with `C[C@@H]1CN(c2nc(-c3cnn(C)c3)cn3nccc23)CC[C@H]1CNC(=O)c1noc(C2(C)CC2)n1` (single isomer, unassigned) [Example 145] the figure was 10 to 1000 nM.

Source of the values: patent US20250034150A1, “BTK INHIBITORS” (BIOGEN MA INC., priority 2021, published 2025).
